Here are results for three molecules from patent publication US10457672B2, “γ-diketones as Wnt/β-catenin signaling pathway activators” (Samumed, LLC, priority 2013, dated 2019).

Molecules are shown by their SMILES. pEC50: −log10 of the molar value.

This assay relates to Wnt/β-catenin signaling pathway (Wnt-responsive SP5 promoter luciferase reporter in SW480 cells). The experiment in a line: Wnt reporter (SP5 promoter-firefly luciferase) activation assay in SW480 cells. Type of assay: cell-based. To be noted: Homo sapiens; SW480 colon cancer cells with SP5 promoter luciferase reporter; 24 h after compound addition; normalized to DMSO; concentration at half maximal activation. In a few lines: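 SW480 cells (APC-mutant) stably carrying an SP5-derived 8×TCF/LEF promoter–firefly luciferase reporter were treated with half-log compound dilutions from 3 or 10 µM top.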
As to `O=C(CCC(=O)c1ccc2c(c1)SCCO2)c1ccc(C(F)(F)F)cc1` [Compound 18, 1-(2,3-Dihydrobenzo[b][1,4]oxathiin-6-yl)-4-(4-(trifluoromethyl)phenyl)butane-1,4-dione], the pEC50 was less than 5.00.
`COc1ccccc1C(=O)CCC(=O)c1ccccn1` [Compound 547, 1-(2-Methoxyphenyl)-4-(pyridin-2-yl)butane-1,4-dione] had a pEC50 of less than 5.00.
The figure for `COc1ccccc1C(=O)CCC(=O)c1ccc2sccc2c1` [Compound 307, 1-(Benzo[b]thiophen-5-yl)-4-(2-methoxyphenyl)butane-1,4-dione] is 7.26.
